Test results taken from patent publication US20100004333A1, “COMPOSITIONS AND METHODS FOR TREATING CARDIOVASCULAR DISORDERS” (priority 2004, published 2010).

How the values were obtained:
[1] = test system: New Zealand White rabbits; assay: Re-endothelialization and vascular reactivity after aortic balloon injury in rabbits; assay type: in vivo; conditions: for Endothelium-dependent relaxation (acetylcholine) / Tissue content of cGMP in response to acetylcholine: aortic rings six weeks after injury; for Endothelium-dependent relaxation (acetylcholine): FIG. 15c; for Tissue content of cGMP in response to acetylcholine: FIG. 15d; for Regeneration of endothelium (length covered by CD31+ cells) / Intima-to-media ratio at CD31-positive sites: six weeks after injury; for Regeneration of endothelium (length covered by CD31+ cells): FIG. 15b; for Intima-to-media ratio at CD31-positive sites: not shown
[2] = Oxidation of probucol or DTBP in hexane by 1e- and 2e-oxidants (HPLC, ion exchange chromatography); assay type: physicochemical; conditions: for Depletion: compound 1 mM in hexane, 60 min, 37° C.; for SO4^2− in aqueous phase of reaction mixture: oxidized with 5-mol equivalent HOCl, antioxidant-free mixture 58±5 nmol
Method: (§1) All other reagents were of the highest quality available. Buffers were routinely filtered, argon-flushed and stored at 4° C. prior to use. Solutions of HOCl were prepared freshly before use by diluting reagent HOCl (Aldrich) into phosphate buffer (250 mM, pH 7.0) and standardizing with ε235 nm˜100 M^−1cm^−1 (hypochlorous acid) and ε290 nm˜300 M^−1cm^−1 (hypochlorite), as described in Journal of Physical Chemistry 1966, 70:3798-3805. Animals: New Zealand White rabbits (2.5-3 kg) were obtained from a commercial farm (Wauchope, NSW Australia) and housed individually for the entire study period. […] Feed and water were provided ad libitum for a period of 4 weeks judged to be sufficient time for circulating drug levels to reach a maximum (data not shown). […] The local ethics committee approved the study. Vascular reactivity: Perfused rabbit aortas were harvested and vascular reactivity studies performed as described in Circulation 2003, 107:2031-2036. Briefly, within 2 h of isolation, ring segments ˜5 mm in length were mounted in a myobath system (World Precision Instruments, Sarasota, Fla.) containing 20 mL of Krebs solution aerated at 37° C. with 5% CO2(g), and the dilatory response of half maximally norepinephrine pre-constricted rings to incremental doses of ACh (10^−9-10^−5 mol/L) determined. Where indicated, reagent HOCl (final concentration 400 μM) was added to the Krebs solution and the rings incubated for 5 min prior to thorough washing, pre-constriction and assessment of vessel relaxation. In some studies rings were incubated with probucol or DTBP for 10 min, washed thoroughly and then exposed to HOCl prior to assessing endothelium-dependent relaxation. A maximum of three consecutive sequences of constriction/relaxation were performed for each ring. Preparation of Aortic Homogenates: Aortic Rings Used in the Vascular Function Studies were removed and immediately cut into small pieces, frozen in liquid nitrogen, and then pulverized and homogenized as described. An aliquot (50 μL) of homogenate was removed for protein determination (BCA assay, Sigma) and the remainder extracted into methanol/hexane (5:1, v/v), the resulting hexane fraction dried and the residue suspended in isopropanol for analysis of probucol and its oxidation products. For cGMP determinations, aortic segments were treated with vehicle (control) or HOCl (400 μM) before addition of 1 μM ACh in the presence of 200 μM 3-isobutyl-1-methylxanthine and measurement of cGMP in the homogenate using a kit (Cayman Chemical, Ann Arbor, Mich.). Probucol oxidation studies: Probucol is a highly lipophilic compound (partition coefficient between octanol and water=[…]) that readily distributes into lipoproteins. To mimic the biological situation, oxidation reactions were therefore performed with probucol (or DTBP) dissolved in hexane (2 mL) to which aliquots of HOCl were added to give the final concentrations indicated. The heterogeneous mixtures were shaken vigorously at 37° C. for 60 min, then placed on ice after adding 1 mL water, the hexane phase removed, dried under vacuum and resuspended in isopropanol (200 μL) for HPLC analyses (see below). The aqueous phase was analyzed for the content of sulfate anion (SO4^2−) by ion exchange chromatography (see below). Analytical analyses: Probucol, DTBP, BP and DPQ were analyzed by gradient reversed-phase HPLC and quantified by peak area comparison with authentic standards. Under the conditions used, BP, DTBP, probucol and DPQ eluted at 12.5, 19.2, 20.8 and 28.4 min, respectively. Other oxidation products resolved by this HPLC system were also quantified by peak area comparison, using analytically pure samples obtained from semi-preparative (LC-18, 20 mm×25 cm, 5 μm) fractionation of the reaction mixture. Isolated samples were dried under vacuum, re-dissolved to a known concentration and assessed for purity by analytical HPLC (LC-18, 4.6 mm×25 cm, 5 μm) in combination with mass spectrometry (see below). […]

[3] = test system: New Zealand White rabbits; assay: Rabbit aortic balloon-injury model with heme oxygenase blocked by tin protoporphyrin; assay type: in vivo; conditions: plus tin protoporphyrin 7.5 mg/kg i.p. every other day; for Ability to inhibit intimal thickening when heme oxygenase is blocked: nine weeks, FIG. 19a; for Ability to promote re-endothelialization when heme oxygenase is blocked: FIG. 19b; for Ability to inhibit vascular smooth muscle cell proliferation when heme oxygenase is blocked: FIG. 19c
Method: Inhibition of heme oxygenase activity. Three groups of male New Zealand White rabbits (n=6 per group) that were fed 100 g per day of normal chow±1% probucol or 0.02% DTBP (wt/wt) received intraperitoneal injection of tin protoporphyrin (SnPP, Frontier Scientific, 7.5 mg/kg) every other day as described in American Journal of Physiology, Heart and Circulatory Physiology 2000; 278:H623-H632 for the entire nine week duration of the experiment, with balloon injury at the end of week three and lesion assessment after a further six weeks.

[4] = test system: aortic rings from rabbits; assay type: cell-based, New Zealand White rabbits; conditions: for Protection of aortic rings from HOCl-induced loss of response to ACh: 10 min pre-incubation with 10, 25 or 100 μM, FIG. 7
Method: as §1, with “Preparation of Aortic Homogenates: Aortic Rings Used in the Vascular Function Studies were removed and immediately cut into small pieces, frozen in liquid nitrogen, and then pulverized and homogenized as described. An aliquot (50 μL) of homogenate was removed for protein determination (BCA assay, Sigma) and the remainder extracted into methanol/hexane (5:1, v/v), the resulting hexane fraction dried and the residue suspended in isopropanol for analysis of probucol and its oxidation products. For cGMP determinations, aortic segments were treated with vehicle (control) or HOCl (400 μM) before addition of 1 μM ACh in the presence of 200 μM 3-isobutyl-1-methylxanthine and measurement of cGMP in the homogenate using a kit (Cayman Chemical, Ann Arbor, Mich.).” left out, “To mimic the biological situation, oxidation reactions were therefore performed with probucol (or DTBP) dissolved in hexane (2 mL) to which aliquots of HOCl were added to give the final concentrations indicated. The heterogeneous mixtures were shaken vigorously at 37° C. for 60 min, then placed on ice after adding 1 mL water, the hexane phase removed, dried under vacuum and resuspended in isopropanol (200 μL) for HPLC analyses (see below).” left out, “Under the conditions used, BP, DTBP, probucol and DPQ eluted at 12.5, 19.2, 20.8 and 28.4 min, respectively.” left out

[5] = Total aortic drug concentration in apoE−/− mice, 5 months; assay type: in vivo
Source text: ApoE−/− mouse model. Four groups of male apoE−/− mice (8-10 weeks, Animal Resources Centre, Perth, Australia) were fed a high fat diet based on Harlan Teklad diet TD88137±1% (wt/wt) probucol (96% purity, a gift from AstraZeneca, Sweden), 0.02% DTBP, or 0.02% BP (Polysciences, Warrington, Pa.) for 5 months. Tissue harvesting and analyses were done as described in Examples 1 and 3, using 15 and 10 mice of each group for biochemical and histological analyses, respectively. Histology and immunohistochemistry. Aortic lesion assessment was carried out at four sites (sinus, arch, thoracic and abdominal aorta) as described in Example 1. Immediately adjacent sections were employed for immunohistochemistry, using Mac-3 (macrophages, dilution 1:200, DAKO), PCNA (cell proliferation, dilution 1:500, DAKO) and anti-rat HO-1 monoclonal antibody (dilution 1:50, Santa Cruz) with avidin-biotin-horseradish peroxidase for signal detection (Vectorstain Elite ABC Kit, Vector Laboratories). Apoptosis was assessed using the TUNEL assay kit (Roche) according to the manufacture's instructions. Digital images were taken for quantitative morphometric analysis. Mac-3^+ areas were determined using Adobe Photoshop V6.0 by tracing. Total cell profiles, TUNEL^+ and PCNA^+ cells were counted manually at high magnification (40× objective). A single operator using coded samples performed all analyses blinded. Heme oxygenase. Heme oxygenase activity was determined in microsomes prepared from homogenized aortic tissue and assessed by HPLC as described in Circulation 2004, 110: 1855-1860. Statistics. All data are expressed as mean±SEM. One-way ANOVA and the student-Newman-Keul's test were used to evaluate differences between groups, with P<0.05 considered significant.

| SMILES | Endothelium-dependent relaxation (acetylcholine) [1] | Tissue content of cGMP in response to acetylcholine [1] | Regeneration of endothelium (length covered by CD31+ cells) [1] | Intima-to-media ratio at CD31-positive sites [1] | Depletion ([2]; oxidant AAPH 5 mM) | Depletion ([2]; oxidant HOCl 5 mM, air) | SO4^2− in aqueous phase of reaction mixture [2] | Ability to inhibit intimal thickening when heme oxygenase is blocked [3] | Ability to promote re-endothelialization when heme oxygenase is blocked [3] | Ability to inhibit vascular smooth muscle cell proliferation when heme oxygenase is blocked [3] | Protection of aortic rings from HOCl-induced loss of response to ACh ([4]; washed, then 400 μM HOCl) | Total aortic drug concentration ([5]; male, apoE−/−, mouse, in vivo, 5 months) | Bioavailability relative to probucol ([5]; mouse, in vivo) | Concentration at which full protection from HOCl-induced loss of response to ACh was seen ([4]; 10 min pre-incubation, washed, then 400 μM HOCl) | Tissue cGMP in response to ACh ([4]; rings pre-treated with 100 μM, FIG. 7B) | Total aortic drug concentration ([5]; apoE−/− mice, high fat diet 5 months, 1% probucol, 0.02% DTBP, 0.02% BP) |
| --- | --- | --- | --- | --- | --- | --- | --- | --- | --- | --- | --- | --- | --- | --- | --- | --- |
| CC(C)(C)c1cc(SSc2cc(C(C)(C)C)c(O)c(C(C)(C)C)c2)cc(C(C)(C)C)c1O [DTBP, 4,4′-dithiobis(2,6-di-tert-butyl-phenol)] | enhanced | enhanced | significantly enhanced | significantly decreased | 0 ± 0% | 96 ± 3% | 204 ± 43 nmol | completely prevented | completely prevented | completely prevented | protected aortic rings from HOCl-induced dysfunction when added in vitro | 7.1±1.4 nmol/mg protein | clearly superior bioavailability compared to probucol | – | – | – |
| CC(C)(Sc1cc(C(C)(C)C)c(O)c(C(C)(C)C)c1)Sc1cc(C(C)(C)C)c(O)c(C(C)(C)C)c1 [probucol] | enhanced | enhanced | significantly enhanced | significantly decreased | 0 ± 0% | > 90% | 139 ± 14 nmol | completely prevented | completely prevented | completely prevented | protected the vessels from HOCl-induced loss of response to ACh in a concentration dependent manner | – | – | 100 µM | increased tissue content of cGMP | 21.8±8.4 nmol/mg protein |
